Earlier results, collected in article PMC11946513, “Modulation of the substrate preference of a MYST acetyltransferase by a scaffold protein” (The Journal of Biological Chemistry, 2025).

Target: KAT6A MYST domain
Conditions: binding to the KAT6A MYST domain; acetyl-CoA competitive; read-out: inhibition constant (Ki)
Description: The active enzyme concentration for each form of KAT6A was obtained through tight-binding inhibition ([48]) by PF-9363, which binds to the KAT6A MYST domain with an inhibition constant (Ki) of ≈0.3 nM ([6]).

## COc1cccc(OC)c1S(=O)(=O)Nc1noc2cc(Cn3cccn3)cc(OC)c12 [PF-9363]
  Ki: ~0.3 nM
